Experimental findings from the METLIN SMRT retention time set (Domingo-Almenara et al. 2019) are described below.

This series in a line: gradient 5% acetonitrile 3 min, to 50% in 2 min, to 85% in 15 min, held 3 min, 100 µL/min. The following applies: column: Zorbax Extend-C18 2.1 x 50 mm; eluents: water / acetonitrile, 0.1% formic acid. The gist of the method: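 Standards, all pure, were combined into mixtures of ~100 molecules and run at 100 μL/min on a Zorbax Extend-C18 column (2.1 × 50 mm, 1.8 μm) with water and acetonitrile, each containing 0.1% formic acid. A coupled quadrupole time-of-flight mass spectrometer operated in positive and negative ionization mode. Retention time values come from computationally picked adduct peaks, each inspected manually.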
`N#Cc1cccc(NC(=O)C2CCCN(S(=O)(=O)c3cc(-c4noc(C5CCC5)n4)cs3)C2)c1` (centres undefined) came in with an RP-LC retention time of 1120 s.

Take `O=C(C1CCOC1)N1CC(Oc2ccc(-c3nc(-c4ccccc4)no3)cc2)C1` (centres undefined): the RP-LC retention time stood at 952 s.

Take `Cc1ccnc(N2CCC(C(=O)NCc3ccc4c(c3)OCO4)CC2)n1`: the RP-LC retention time was 658 s.

`Cc1ccc(CNc2cc(-n3cccn3)ncn2)cc1` came in with an RP-LC retention time of 898 s.

With `CC(C)C(=O)Nc1ccc(C(=O)NCCNS(=O)(=O)c2ccc3c(c2)OCCO3)cc1`, the RP-LC retention time came out at 661 s.

In turn, `COC(=O)c1cccc(Nc2c(-c3ccc(F)cc3)nc3cnccn23)c1` gave an RP-LC retention time of 830 s.

The compound `CSc1ccc(NC(=O)c2c(C)sc3ncnc(N4CCCC(C)C4)c23)cc1` (centres undefined) came in with an RP-LC retention time of 1250 s.

In the case of `Cc1ccc2c(c1)N(Cc1ccccc1F)N=C(C(=O)N1CCCCC1)S2(=O)=O`, the RP-LC retention time is 1000 s.

For `CC1CCCCN1S(=O)(=O)c1ccc2nc(N3CCN(c4ccccn4)CC3)ccc2c1` (centres undefined), the RP-LC retention time came to 674 s.

`CCCN1CCN(C(=O)C2CCN(c3nc4ccc(-c5ccccc5)nc4s3)CC2)CC1` displayed an RP-LC retention time of 693 s.

Consider `CCn1nc(CNC(=O)C2CCCCC2)c2ccccc21`, for which the RP-LC retention time was determined as 828 s.

`CC1CCCC(NC(=O)c2cc(=O)[nH]c3ccc(Br)cc23)C1C` (centres undefined): the RP-LC retention time was determined as 869 s.

In the case of `COc1ccc2c(c1)C=C(C(=O)N1CCN(Cc3ccc(OC)c(OC)c3OC)CC1)CO2`, the RP-LC retention time was 682 s.

In turn, `O=C(c1ccc(-c2ccsc2)nc1)N1CCN(C2CCCCC2)CC1` registered an RP-LC retention time of 625 s.

As for `O=C(NC1CCN(c2nnc3ccccn23)CC1)c1cc2c(s1)CCCC2`, the RP-LC retention time was 742 s.

As to `CCOc1ccc(NC(=O)CN2CCN(Cc3ccc(C)cc3)C(=O)C2=O)cc1`, the RP-LC retention time came out at 799 s.

As to `CC(=O)Nc1cccc(-n2cc3c(c2-c2ccccc2Cl)c(=O)n(C)c(=O)n3C)c1`, the RP-LC retention time was determined as 768 s.

In turn, `COc1cccc(S(=O)(=O)N2CCC3(C2)C(=O)N(C)c2ccc(OC)cc23)c1` (centres undefined) came in with an RP-LC retention time of 904 s.

In turn, `O=C(CCc1ccccc1)NC1CCN(c2nnc3ccc(Cl)cn23)CC1` came in with an RP-LC retention time of 739 s.

Consider `Cc1ccc2c(=O)c(C(=O)N3CCCCC3)cn(CC(=O)NC3CCCC3)c2n1`, for which the RP-LC retention time amounted to 694 s.

For the compound `O=C(NCCCN1CCN(c2ccc(F)cc2)CC1)C1CCCN(c2nc3cccnc3s2)C1` (centres undefined), the RP-LC retention time turned out to be 645 s.

As to `Cc1cccc(N2CCN(C(=O)Cn3nc(C(=O)N4CCCC4)c4ccccc43)CC2)c1C`, the RP-LC retention time was 1020 s.

Turning to `O=C(NC1CCCCCC1)c1cccc(CN2C(=O)C3CCCN3C(=O)c3ccccc32)c1` (centres undefined), the RP-LC retention time stood at 865 s.

Take `COc1ccccc1-c1nc(C2CC(=O)N(c3ccc(F)cc3)C2)no1` (centres undefined): the RP-LC retention time is 926 s.

`CCc1noc(NC(C)=O)c1-c1ccc(C)c(S(=O)(=O)Nc2ccccc2Cl)c1` gave an RP-LC retention time of 829 s.

Compound `CCCN1CCN(c2cc(C(=O)O)c3cc(NS(=O)(=O)c4ccccc4Cl)ccc3n2)CC1` returned an RP-LC retention time of 595 s.

For the compound `O=C1CCCc2c1cc(C(=O)N1CCOCC1)c(=O)n2-c1ccc(C(F)(F)F)cc1`, the RP-LC retention time worked out at 723 s.

`O=C(Cn1ccc2ccccc21)N1CCN(c2ccc(F)cc2)CC1` came in with an RP-LC retention time of 884 s.

For the compound `O=C1NC2(CCN(C(=O)Nc3ccc4c(c3)OCCO4)CC2)Oc2ccccc21`, the RP-LC retention time turned out to be 736 s.

In turn, `Cc1ccc(Nc2nc(C)cc(N3CCN(C(=O)c4ccc(Br)o4)CC3)n2)cc1` displayed an RP-LC retention time of 715 s.

Take `Cc1cccc(-c2nc(C)c3c(n2)N(Cc2ccco2)C(=O)CC3)c1`: the RP-LC retention time was 1110 s.

`CCN1CCN(C(=O)c2cn(-c3cc(N4CCSCC4)ncn3)cn2)CC1`: the RP-LC retention time turned out to be 605 s.

Compound `CC1CCCN(CCCNC(=O)CCCn2c(=O)c3cccn3c3ccc(F)cc32)C1` (centres undefined) displayed an RP-LC retention time of 650 s.

Consider `O=C(Nc1ccc(F)c(F)c1)C1CCN(c2ccc(=O)n(-c3ccc(F)cc3)n2)CC1`, for which the RP-LC retention time came to 822 s.

Take `CCC(=O)N(CC)c1nc(-c2ccc(Br)cc2)cs1`: the RP-LC retention time stood at 1250 s.

Compound `COCc1cc(=O)n(CC(=O)Nc2cccc(C)c2)c(N)n1` yielded an RP-LC retention time of 622 s.

As for `CC1CCc2nn(CC(=O)NCCN3CCCCCC3)cc2C1` (centres undefined), the RP-LC retention time was 605 s.

In turn, `COc1ccc(OC)c2sc(N3CCN(S(=O)(=O)c4cccs4)CC3)nc12` showed an RP-LC retention time of 896 s.

The compound `CN1C(=O)c2cc(C(=O)NCCCc3ccccc3)nn2CC1(C)C(=O)NC1CCCC1` (centres undefined) displayed an RP-LC retention time of 826 s.

`Cc1nc(-c2noc(-c3ccc(F)cc3)n2)cn1CC(=O)Nc1ccc(Cl)cc1` came in with an RP-LC retention time of 922 s.

In turn, `CCOC(=O)c1cccc(NC(=O)Cn2cnc3nc(N4CCCC(C(=O)NC)C4)sc3c2=O)c1` (centres undefined) returned an RP-LC retention time of 678 s.

Regarding `O=C(CN1c2ccc(F)cc2-c2ccccc2S1(=O)=O)Nc1ccccc1`, the RP-LC retention time amounted to 936 s.

In the case of `CCOc1ccc(C(=O)n2nc(C)c(S(=O)(=O)N3CCCCC3)c2C)cc1`, the RP-LC retention time came out at 997 s.

Take `COc1ccc(-c2ccc3c(N4CCOC[C@@H]4C)nc(N4CCOC[C@@H]4C)nc3n2)cc1CO`: the RP-LC retention time was found to be 698 s.

As for `CC1CCCN(C(=O)c2cn(-c3cc(-c4nc(C(C)C)no4)ccn3)cn2)C1` (centres undefined), the RP-LC retention time turned out to be 955 s.

Regarding `O=S(=O)(c1cc(-c2noc(C3CCCC3)n2)cs1)N1CCOCC1`, the RP-LC retention time came to 1200 s.

Compound `Cc1cc(C(=O)NCCCN2CCCC2=O)c2c(C)nn(-c3ccccc3)c2n1` showed an RP-LC retention time of 732 s.

As to `O=C(NC1CC1)c1ncoc1-c1ccccc1C(=O)N1CCCCC1`, the RP-LC retention time turned out to be 689 s.

Regarding `Cc1cccc(N2C(=O)C(O)=C(C(=O)c3cccs3)C2c2ccc(Cl)cc2)n1` (centres undefined), the RP-LC retention time came to 1040 s.

As for `CCc1nn2c(CNS(=O)(=O)c3cccc(F)c3)c(-c3ccccc3)nc2s1`, the RP-LC retention time is 935 s.

In the case of `COc1cc2ccccc2cc1C(=O)Nc1nccs1`, the RP-LC retention time was determined as 888 s.

`Cc1cc(NC(=O)N(C)CC2CCOC2)ccc1Br` (centres undefined) showed an RP-LC retention time of 798 s.

As for `c1cc(N2CCCCC2)ncc1-c1noc(CN2CCC3(CC2)OCCO3)n1`, the RP-LC retention time is 637 s.

For the compound `Cc1cccc(NC(=O)C2CC(=O)N(c3ccc4c(c3)CCN4C(=O)C3CC3)C2)c1` (centres undefined), the RP-LC retention time is 816 s.

With `Cc1cccc(-c2noc(Cn3c(=O)n(-c4ccccc4C)c(=O)c4sccc43)n2)c1`, the RP-LC retention time worked out at 1070 s.

On to `O=C(CC1CCN(C(=O)c2ccc3oc(C4CC4)nc3c2)CC1)N1CCN(c2ccccn2)CC1`, for which the RP-LC retention time was 602 s.

With `Cc1cccc(NC(=O)N(C)CCc2noc(COc3cccc(C)c3)n2)c1`, the RP-LC retention time was 970 s.

Turning to `CC1(C(=O)NCc2ccccc2)CCN(S(=O)(=O)c2ccc(Br)cc2)CC1`, the RP-LC retention time came out at 961 s.

Take `COc1ccc(CNC(=O)C2CCc3nc(N4CCOCC4)ncc3C2)cc1` (centres undefined): the RP-LC retention time came out at 777 s.

`CC(C)CCNC(=O)c1nc(Nc2ccc(F)cc2)c2ccccc2n1` gave an RP-LC retention time of 851 s.

Consider `Cc1ccc(Nc2c(-c3ccc(O)cc3)nc3ccc(C)cn23)cc1`, for which the RP-LC retention time came to 721 s.

`CCc1ccc(NC(=O)Cn2c(C)nc3onc(C)c3c2=O)cc1`: the RP-LC retention time stood at 845 s.

Regarding `CN(C)c1nc2ncn3c(=O)n(CC(=O)Nc4ccc(Cl)cc4F)nc3c2s1`, the RP-LC retention time turned out to be 748 s.

The compound `CCCOc1nccnc1NC1CCN(C(=O)c2ccnn2C)CC1` displayed an RP-LC retention time of 706 s.

`O=C(CN1C(=O)c2cccnc2Oc2ccccc21)NCCc1c[nH]c2ccccc12`: the RP-LC retention time came to 766 s.

Compound `O=C1COc2ccccc2N1Cc1nc(-c2ccc(Br)cc2)no1` gave an RP-LC retention time of 1110 s.

Compound `Cc1ccc(-c2csc(NC(=O)Cc3ccc(Cl)cc3)n2)cc1` yielded an RP-LC retention time of 1120 s.

With `CCS(=O)(=O)N1CC(=O)N(c2ccccc2C)C(C)(C(=O)NCc2ccc(F)cc2)C1` (centres undefined), the RP-LC retention time was 809 s.

The compound `Cc1ccccc1Oc1ccc(S(=O)(=O)NCCC(=O)O)cc1` showed an RP-LC retention time of 759 s.

With `Cc1c2c(nn1-c1ccc(SCC(=O)NC(C)C)nn1)CCC2`, the RP-LC retention time is 841 s.

For `CC1=NS(=O)(=O)N(C)C=C1C(=O)OCCC(C)C`, the RP-LC retention time worked out at 966 s.

With `CC(C)c1noc(C2(NC(=O)c3ccoc3)CCCCC2)n1`, the RP-LC retention time is 867 s.

`COC(=O)c1ccc(NC(=O)N2CCCC2c2cc(C(C)C)no2)cc1` (centres undefined) returned an RP-LC retention time of 845 s.

`COc1ccc(-n2nc3c(N4CCCC(C(=O)NCCC5=CCCCC5)C4)nnc(C)c3c2C)cc1` (centres undefined) returned an RP-LC retention time of 814 s.

With `COC1C(=O)N(c2cccc(F)c2)C12CCN(S(=O)(=O)Cc1ccccc1F)CC2` (centres undefined), the RP-LC retention time came out at 1040 s.

Consider `CCc1cccc(NC(=O)Nc2cnn(-c3ncc(N4CCCC4)cn3)c2)c1`, for which the RP-LC retention time was determined as 749 s.

As for `COc1cccc(CNC2=NCCNC23CCN(S(=O)(=O)c2ccc(Cl)cc2)CC3)c1`, the RP-LC retention time is 738 s.

In the case of `CCCS(=O)(=O)Nc1ccc(F)c(C(=O)c2c[nH]c3ncc(-c4ccc(Cl)cc4)cc23)c1F`, the RP-LC retention time turned out to be 1130 s.

`O=C(NCC1CC1)C1CCN(C(=O)c2ncn3c2COC(c2ccc(F)cc2)C3)CC1` (centres undefined) came in with an RP-LC retention time of 699 s.
